The conditions of the data set: for aqueous solubility: pH 6.8.

In brackets after ≈: the same amount, converted by molar mass.

For orientation: aqueous solubility means the concentration that dissolves in the medium under given conditions. Low values mean little dissolved substance, high ones much dissolved substance.

For the compound `O=C(Nc1ccc(F)cc1)c1cc(C2CC2)nn1-c1ccccc1`, the MDR1-MDCK efflux ratio came out at 0.314; the intrinsic clearance, human liver microsomes amounted to 20.7 mL/min/kg; the intrinsic clearance, rat liver microsomes turned out to be 76.3 mL/min/kg; the aqueous solubility was 4.11 µg/mL (≈ 12.8 µM).
`Cn1cc(C(=O)N2CCC(CC(=O)O)CC2)cn1` had an intrinsic clearance, human liver microsomes not above 4.74 mL/min/kg; an intrinsic clearance, rat liver microsomes not above 10.7 mL/min/kg; an aqueous solubility of 57.3 µg/mL (≈ 228 µM).
Take `Cc1ccc(C(=O)Nc2ccccc2C(C)(C)C)cn1`: the MDR1-MDCK efflux ratio turned out to be 0.696; the intrinsic clearance, human liver microsomes is not above 4.74 mL/min/kg; the intrinsic clearance, rat liver microsomes turned out to be 30.4 mL/min/kg; the aqueous solubility is 32 µg/mL (≈ 119 µM).
Regarding `O=C(NCCc1ccc(F)cc1)n1ccnc1`, the intrinsic clearance, human liver microsomes came to 39.7 mL/min/kg and the intrinsic clearance, rat liver microsomes was 95.6 mL/min/kg.
As for `CCN1CCC(CNC(=O)c2cc(C)nc3cc(F)ccc23)CC1`, the MDR1-MDCK efflux ratio was 25.4; the intrinsic clearance, human liver microsomes is not above 4.74 mL/min/kg; the intrinsic clearance, rat liver microsomes was not above 10.7 mL/min/kg; the aqueous solubility was 37.2 µg/mL (≈ 113 µM).
Regarding `COc1cc([C@@H]2c3cc4c(cc3[C@H](O)[C@H]3COC(=O)[C@@H]23)OCO4)cc(OC)c1OC`, the MDR1-MDCK efflux ratio amounted to 0.444; the intrinsic clearance, human liver microsomes turned out to be 44.5 mL/min/kg; the intrinsic clearance, rat liver microsomes was 5860 mL/min/kg.
On to `CC(=O)N1CC[C@H]2O[C@H]3c4ccc(O[C@@H]5O[C@H](CO)[C@@H](O[C@@H]6O[C@H](CO)[C@H](O)[C@H](O)[C@H]6O)[C@H](O)[C@H]5O)cc4OC(C)(C)[C@@H]3C[C@H]2C1`, for which the MDR1-MDCK efflux ratio came to 0.675; the intrinsic clearance, human liver microsomes was not above 4.74 mL/min/kg; the intrinsic clearance, rat liver microsomes is not above 10.7 mL/min/kg.
In the case of `COc1ccc(NC(C)=O)cc1NC(=O)CN(Cc1ccccc1)C(C)C`, the MDR1-MDCK efflux ratio stood at 2.21; the intrinsic clearance, human liver microsomes came to 1340 mL/min/kg; the intrinsic clearance, rat liver microsomes came out at 4200 mL/min/kg.
The compound `NC(=O)Cn1nnc(-c2ccccc2)n1` displayed an aqueous solubility of 11 µg/mL (≈ 54.1 µM).
For the compound `NCC(=O)Nc1ccc(-n2nc(C(F)(F)F)cc2-c2ccc3c(ccc4ccccc43)c2)cc1`, the MDR1-MDCK efflux ratio was found to be 2.96 and the aqueous solubility is 0.25 µg/mL (≈ 0.543 µM).
For `COC(=O)c1c(C)[nH]c(C(=O)OCC(=O)N(C)Cc2cccs2)c1C`, the MDR1-MDCK efflux ratio was found to be 1.47; the intrinsic clearance, human liver microsomes is 54.1 mL/min/kg; the intrinsic clearance, rat liver microsomes stood at 484 mL/min/kg; the aqueous solubility came out at 40.6 µg/mL (≈ 111 µM).
`Cn1ccnc1C1CCN(C(=O)COCc2nc3cc(F)ccc3[nH]2)CC1` had an intrinsic clearance, human liver microsomes not above 4.74 mL/min/kg and an intrinsic clearance, rat liver microsomes of 61.5 mL/min/kg.
In the case of `CCc1cnccc1C(=O)Nc1cnccn1`, the MDR1-MDCK efflux ratio was 0.767; the intrinsic clearance, human liver microsomes was not above 4.74 mL/min/kg; the intrinsic clearance, rat liver microsomes amounted to 17.2 mL/min/kg.
The like results for `COCCCNc1nnc(-c2ccncc2)s1` were, in that order, 0.654, 13.3 mL/min/kg and 84.1 mL/min/kg.
For the compound `O=C(Nc1cccnc1)c1ccnc(NC(=O)C2CC2)c1`, the MDR1-MDCK efflux ratio was 2.81; the fraction unbound, rat plasma was 0.412; the intrinsic clearance, human liver microsomes was not above 4.74 mL/min/kg; the intrinsic clearance, rat liver microsomes stood at 27.3 mL/min/kg. Moreover, the aqueous solubility worked out at 40.8 µg/mL (≈ 144 µM).
With `O=c1ccc(-c2ccc(F)cc2)nn1Cc1ccncc1`, the MDR1-MDCK efflux ratio stood at 0.674; the intrinsic clearance, human liver microsomes turned out to be 7.74 mL/min/kg; the intrinsic clearance, rat liver microsomes was found to be 56.5 mL/min/kg; the aqueous solubility was 46 µg/mL (≈ 163 µM).
Take `Cn1ncnc1NCc1cc(F)cc(F)c1`: the MDR1-MDCK efflux ratio was 0.757; the intrinsic clearance, human liver microsomes was not above 4.74 mL/min/kg; the intrinsic clearance, rat liver microsomes is not above 10.7 mL/min/kg.
As to `CS(=O)(=O)CCc1nc(C2(c3ccccc3)CC2)nn1-c1ccccc1`, the MDR1-MDCK efflux ratio was found to be 5.9; the intrinsic clearance, human liver microsomes is 5.64 mL/min/kg; the intrinsic clearance, rat liver microsomes is 131 mL/min/kg; the aqueous solubility turned out to be 30.6 µg/mL (≈ 83.3 µM).
Taken in the same sequence, the figures for `Cc1ccc(-c2noc(CCC(=O)N3CCCC3(C)C)n2)cc1F` were 0.535, 228 mL/min/kg, 3380 mL/min/kg and 40.8 µg/mL (≈ 123 µM).
The compound `Cc1ccc(S(=O)(=O)N2CCCc3ccc(NS(=O)(=O)c4cc(F)ccc4F)cc32)cc1` had an intrinsic clearance, human liver microsomes of 244 mL/min/kg and an intrinsic clearance, rat liver microsomes of 2260 mL/min/kg.
As for `Cc1cc(C)c(-c2csc(CC(N)=O)n2)cc1C`, the MDR1-MDCK efflux ratio stood at 0.831.
As for `Cn1cc(-c2nnc(NCc3ccc4ccccc4c3)o2)cn1`, the MDR1-MDCK efflux ratio amounted to 0.701; the intrinsic clearance, human liver microsomes worked out at 7.14 mL/min/kg; the intrinsic clearance, rat liver microsomes was determined as 46.3 mL/min/kg; the aqueous solubility is 11.2 µg/mL (≈ 36.8 µM).
With `CS(=O)(=O)Cc1ccn(-c2ccccc2)n1`, the MDR1-MDCK efflux ratio is 0.661; the intrinsic clearance, human liver microsomes is not above 4.74 mL/min/kg; the intrinsic clearance, rat liver microsomes is not above 10.7 mL/min/kg; the aqueous solubility came to 32.2 µg/mL (≈ 136 µM).
For `Cc1cccnc1NC(=O)Cc1coc2c(C)c(C)ccc12`, the MDR1-MDCK efflux ratio amounted to 0.636; the intrinsic clearance, human liver microsomes worked out at 124 mL/min/kg; the intrinsic clearance, rat liver microsomes was found to be 4310 mL/min/kg; the aqueous solubility was found to be 74.7 µg/mL (≈ 254 µM).
For the compound `CN(C)c1nc(N)nc(Sc2ccccc2)n1`, the MDR1-MDCK efflux ratio was determined as 0.746; the intrinsic clearance, human liver microsomes is 108 mL/min/kg; the intrinsic clearance, rat liver microsomes amounted to 642 mL/min/kg; the aqueous solubility was 3.11 µg/mL (≈ 12.6 µM).
Take `COc1cccc(Cc2nc3sc4c(c3c(=O)[nH]2)CCSC4)c1`: the MDR1-MDCK efflux ratio stood at 1.02; the intrinsic clearance, human liver microsomes was determined as 113 mL/min/kg; the intrinsic clearance, rat liver microsomes turned out to be 2820 mL/min/kg.
The compound `CS(=O)(=O)NCCc1ccc2c(c1)OCCO2` had an aqueous solubility of 32.2 µg/mL (≈ 125 µM).
Turning to `Cc1cc(F)ccc1NC(=O)c1cccc2cccnc12`, the MDR1-MDCK efflux ratio was 0.117 and the aqueous solubility turned out to be 0.44 µg/mL (≈ 1.57 µM).
Consider `CN(C)C(=O)C1(Cc2ccccc2-c2ccccc2)CCN(C(=O)C2CCCO2)CC1` (configuration not stated), for which the MDR1-MDCK efflux ratio stood at 17.3; the fraction unbound, human plasma amounted to 0.0799; the fraction unbound, rat plasma turned out to be 0.184; the intrinsic clearance, human liver microsomes came out at 395 mL/min/kg. Besides, the intrinsic clearance, rat liver microsomes came to 2390 mL/min/kg and the aqueous solubility worked out at 84.1 µg/mL (≈ 200 µM).
Take `CCc1cnc(CN2C(=O)NC3(CCC3)C2=O)o1`: the MDR1-MDCK efflux ratio stood at 3.63; the intrinsic clearance, human liver microsomes is not above 4.74 mL/min/kg; the intrinsic clearance, rat liver microsomes was 51.9 mL/min/kg; the aqueous solubility came out at 32.4 µg/mL (≈ 130 µM).
Turning to `COc1ccc(Cl)cc1NC(=O)CN1CCCN(c2ccc(C(F)(F)F)cn2)CC1`, the MDR1-MDCK efflux ratio amounted to 1.75; the intrinsic clearance, human liver microsomes is 453 mL/min/kg; the intrinsic clearance, rat liver microsomes is 1060 mL/min/kg.
With `Cc1cc(C)cc(OCCN(C)C(=O)NCCN2CCCCC2=O)c1`, the MDR1-MDCK efflux ratio was determined as 29.2; the intrinsic clearance, human liver microsomes is 150 mL/min/kg; the intrinsic clearance, rat liver microsomes stood at 1300 mL/min/kg.
Taken in the same sequence, the figures for `Cc1cc(Cn2cnc(C#N)c2C#N)c2ccccc2n1` were 2.84, not above 4.74 mL/min/kg and 36.7 mL/min/kg.
On to `Cc1nc(N2CCN(C)CC2)nc(C)c1NC(=O)C1CCCCC1`, for which the MDR1-MDCK efflux ratio came out at 3.54; the intrinsic clearance, human liver microsomes is not above 4.74 mL/min/kg; the intrinsic clearance, rat liver microsomes was not above 10.7 mL/min/kg; the aqueous solubility stood at 60 µg/mL (≈ 181 µM).
Consider `C#C[C@@](C)(CC)NC(=O)c1cc(F)cnc1NC1CC(F)(F)C1`, for which the MDR1-MDCK efflux ratio was 0.802; the fraction unbound, human plasma came out at 0.0469; the fraction unbound, rat plasma stood at 0.0708; the intrinsic clearance, human liver microsomes came to 69.6 mL/min/kg. The compound also registered an intrinsic clearance, rat liver microsomes of 313 mL/min/kg.
As for `Cc1nccn1CCNC(=O)C(C)(C)C`, the MDR1-MDCK efflux ratio turned out to be 6.52; the intrinsic clearance, human liver microsomes was not above 4.74 mL/min/kg; the intrinsic clearance, rat liver microsomes is not above 10.7 mL/min/kg; the aqueous solubility is 26.2 µg/mL (≈ 125 µM).
Consider `C#CCNC(=O)CN1CCCN(C(=O)c2cccc(C)n2)CC1`, for which the MDR1-MDCK efflux ratio was determined as 32.5; the intrinsic clearance, human liver microsomes was not above 4.74 mL/min/kg; the intrinsic clearance, rat liver microsomes was found to be 15.7 mL/min/kg; the aqueous solubility amounted to 36.5 µg/mL (≈ 116 µM).
For `Cc1nnc(NCCc2ccc3c(c2)OCO3)c(C#N)c1C`, the MDR1-MDCK efflux ratio was 0.636; the intrinsic clearance, human liver microsomes is 52.1 mL/min/kg; the intrinsic clearance, rat liver microsomes is 935 mL/min/kg; the aqueous solubility amounted to 22.4 µg/mL (≈ 75.6 µM).
Consider `O=C(NCC1(N2CCCCC2)CCCC1)c1cnn[nH]1`, for which the MDR1-MDCK efflux ratio was 31.7; the intrinsic clearance, human liver microsomes is not above 4.74 mL/min/kg; the intrinsic clearance, rat liver microsomes was not above 10.7 mL/min/kg.
As for `Cc1cc(NCC2(c3ccncc3)CC2)ncn1`, the MDR1-MDCK efflux ratio worked out at 2.49; the intrinsic clearance, human liver microsomes was not above 4.74 mL/min/kg; the intrinsic clearance, rat liver microsomes was 198 mL/min/kg.
`COc1ccccc1OC1CCN(Cc2ccccc2C#N)CC1`: the MDR1-MDCK efflux ratio was found to be 0.557; the intrinsic clearance, human liver microsomes came out at 220 mL/min/kg; the intrinsic clearance, rat liver microsomes worked out at 1510 mL/min/kg; the aqueous solubility is 41.1 µg/mL (≈ 127 µM).
With `CN(Cc1nnc(C2CC2)n1C)C(=O)C1C2CC3CC(C2)CC1C3` (configuration not stated), the MDR1-MDCK efflux ratio stood at 11.1; the intrinsic clearance, human liver microsomes came out at 47.8 mL/min/kg; the intrinsic clearance, rat liver microsomes was found to be 951 mL/min/kg; the aqueous solubility worked out at 46.4 µg/mL (≈ 141 µM).
Take `CC(=O)Nc1ccc(S(=O)(=O)NC2=NCN(Cc3ccccc3)CN2)cc1`: the intrinsic clearance, human liver microsomes was not above 4.74 mL/min/kg; the intrinsic clearance, rat liver microsomes is not above 10.7 mL/min/kg; the aqueous solubility worked out at 61 µg/mL (≈ 157 µM).
In the case of `N#Cc1cccc(-c2ccc(=O)n3c2[C@@H]2C[C@@H](CN(Cc4ccc(F)cc4)C2)C3)c1`, the MDR1-MDCK efflux ratio was 6.11; the intrinsic clearance, human liver microsomes worked out at 218 mL/min/kg; the intrinsic clearance, rat liver microsomes was 1470 mL/min/kg; the aqueous solubility worked out at 32.4 µg/mL (≈ 81.2 µM).
On to `COc1ccc(Oc2cc(C)c(-c3csc(NC(=O)c4ccncc4)n3)c(C)c2)cc1`, for which the aqueous solubility was determined as 0.31 µg/mL (≈ 0.718 µM).
In the case of `CC(=O)NC1CCN(Cc2cccc(-c3cccnc3)c2)CC1`, the MDR1-MDCK efflux ratio is 13.6; the intrinsic clearance, human liver microsomes is 6.04 mL/min/kg; the intrinsic clearance, rat liver microsomes came to 42.3 mL/min/kg; the aqueous solubility is 25.8 µg/mL (≈ 83.4 µM).

These data come from the Biogen ADME set (Fang et al. 2023).
